Reference: publication PMC4770093, “The role of kinetic context in apparent biased agonism at GPCRs” (Nature Communications, 2016)
Several values for one entry are separate records, joined by “and”; a condition that tells them apart may be missing. Equal entries are not always repeated.

Legend:
[1] = molecular target: T1, D2LR (Homo sapiens, UniProt P14416); test: biochemical
Method: The cells were harvested in PBS containing 2 mM EDTA and centrifuged at 300 g for 3 min. The resulting pellet was resuspended in ice-cold assay buffer (20 mM HEPES, 100 mM NaCl, 6 mM MgCl2, 1 mM EGTA and 1 mM EDTA pH 7.4) and the centrifugation step was repeated. The intact cell pellet was then resuspended in assay buffer and homogenized using a Polytron homogenizer. After centrifugation (1,000 g, 10 min), the pellet was discarded and the supernatant was recentrifuged at 30,000 g for 1 h at 4 °C using a Sorvall Evolution RC ultracentrifuge (Thermo Scientific). The resulting pellet was resuspended in assay buffer and stored in 250 μl aliquots at −80 °C. Membrane protein concentration was determined using the method of Bradford.
All radioligand binding experiments were conducted at 37 °C in a 1-ml reaction volume in assay buffer (20 mM HEPES, 100 mM NaCl, 6 mM MgCl2, 1 mM EGTA and 1 mM EDTA pH 7.4) containing 100 μM GppNHp and 0.1% ascorbic acid. In all cases, nonspecific binding was determined in the presence of 10 μM haloperidol. […] Filter-bound radioactivity was measured by scintillation spectrometry after the addition of 3.5 ml of Ultima Gold (PerkinElmer) using a Tri-Carb 2900TR liquid scintillation counter (PerkinElmer).
where Y denotes the percentage-specific binding, Top and Bottom denote the maximal and minimal asymptotes, respectively, IC50 denotes the X-value when the response is midway between Bottom and Top, and nH denotes the Hill slope factor. IC50 values obtained from the inhibition curves were converted to Ki values using the Cheng and Prusoff equation[61].

[2] = molecular target: T1, D2LR; test: ERK1/2 phosphorylation assay (Alphascreen SureFire); format: cell-based; set-up: expressed in transfected cells; details: for alpahscreen assay to detect pERK1/2, counts: agonist 10 μM (cariprazine 1 μM), single experiments n=1 to n=4
Method: ERK1/2 phosphorylation was measured using the Alphascreen SureFire ERK kit (PerkinElmer, Waltham, USA). Cells were seeded into 96-well plates at a density of 50,000 cells per well. After 5–7 h, cells were washed with PBS and incubated in serum-free DMEM overnight before assaying. Dose–response experiments were performed for each ligand at 37 °C in the presence of 0.1% ascorbic acid. […] The plate was shaken for 5 min at room temperature (RT) before transferring 5 μl of the lysates to a white 384-well Proxiplate (PerkinElmer, Waltham, USA). […] Plates were read using a Fusion-TM plate reader (PerkinElmer, Waltham, USA).

[3] = molecular target: T1, D2LR; test: β-Arrestin-2 recruitment (BRET); format: cell-based; set-up: expressed in transfected cells
Method: β-Arrestin-2 recruitment. […] To assess β-arrestin-2 recruitment to the D2LR, the cells were transfected with 1 μg Rluc8-tagged D2LR, 4 μg YFP–β-arrestin-2 and 2 μg GRK2. […] The cells were incubated with Coelenterazine (Promega) at a final concentration of 5 μM for 5 min, followed by stimulation with the agonists for an additional 5 min before the BRET readings were captured.

[4] = molecular target: T1, D2LR; test: GαoB G protein activation (BRET); format: cell-based; set-up: expressed in transfected cells; details: for Emax: relative to the maximal response of ropinirole;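 for all read-outs here: Flp-In-CHO cells stably expressing D2LR, transiently transfected, agonist-stimulated in HBSS at 37 °C, net BRET read after coelenterazine, vehicle control subtracted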
Method: G protein activation. Flp-In-CHO cells stably expressing the D2LR were seeded at a density of 2,000,000 cells per 10-cm dish and were transfected the following day using polyethylenimine as the transfection reagent. […] Twenty-four hours after transfection, the cells were plated into 96-well CulturPlates (PerkinElmer) and grown overnight. The cells were equilibrated in Hank's balanced salt solution at 37 °C before starting the experiment. The cells were stimulated with the agonists for the indicated timeframes when the BRET readings were captured. Coelenterazine (Promega) was added at a final concentration of 5 μM at least 3 min before measurement. […] Net BRET was determined by subtraction of the vehicle control from the agonist-induced response.

[5] = molecular target: T1, D2LR; test: xCELLigence cellular impedance (CI) assay; format: cell-based; set-up: expressed in transfected cells; details: for Emax: relative to the maximal response of ropinirole
Method: Changes in CI on ligand stimulation were measured using the xCELLigence system (Roche Applied Science). The baseline cell index of each well of a 96-well E-plate was measured in the presence of growth medium before cell seeding. Cells were seeded at a density of 20,000 cells per well and grown for 16–20 h followed by 4 h serum starvation. Cells were treated with the ligands and the cell index values were obtained immediately after ligand stimulation every 15 s for a total time of 90 min. The retrieved cell index values were then normalized by dividing the cell index at the time of ligand addition followed by subtraction of the vehicle control at each time point.

[6] = molecular target: T1, D2LR; test: Inhibition of forskolin-induced cAMP production (BRET CAMYEL biosensor); details: for EC50: pEC50 cAMP; for Emax: relative to the maximal response of ropinirole; for Inhibition of cAMP production measured using a CAMYEL BRET biosensor, Net BRET: single experiments n = 1, 2, 3
Method: Flp-In-CHO cells stably expressing the D2LR were seeded at a density of 2,000,000 cells per 10-cm dish and were transfected the following day using polyethylenimine as the transfection reagent. The cells were transfected with 3 μg CAMYEL, to allow the detection of cAMP levels within the cells. Twenty-four hours after transfection, the cells were plated into 96-well CulturPlates (PerkinElmer) and grown overnight. The cells were equilibrated in Hank's balanced salt solution at 37 °C (or 25 °C when indicated) before starting the experiment. The cells were co-stimulated with the agonists and 10 μM forskolin for the indicated timeframes when the BRET readings were captured. Coelenterazine (Promega) was added at a final concentration of 5 μM at least 3 min before measurement. […] Net BRET was determined by subtraction of the vehicle control co-added with 10 μM forskolin.

T1 sequence (P14416 whole entry): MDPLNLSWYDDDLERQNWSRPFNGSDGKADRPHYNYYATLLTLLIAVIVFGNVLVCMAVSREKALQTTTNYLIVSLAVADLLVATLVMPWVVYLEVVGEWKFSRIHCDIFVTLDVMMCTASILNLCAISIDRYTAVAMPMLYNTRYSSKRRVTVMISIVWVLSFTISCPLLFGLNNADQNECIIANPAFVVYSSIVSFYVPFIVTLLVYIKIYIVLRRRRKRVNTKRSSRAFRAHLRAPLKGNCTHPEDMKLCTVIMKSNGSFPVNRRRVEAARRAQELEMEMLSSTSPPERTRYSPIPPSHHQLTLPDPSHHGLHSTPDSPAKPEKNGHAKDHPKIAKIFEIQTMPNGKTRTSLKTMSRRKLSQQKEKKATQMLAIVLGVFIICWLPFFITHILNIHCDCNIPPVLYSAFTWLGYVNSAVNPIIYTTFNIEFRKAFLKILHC

## CCCN(CCC)CCc1cccc2c1CC(=O)N2 [Ropinirole, ropinirole]
[1]
  Ki: 2510 nM
[2]; 5 minute timepoint, Flp-In-CHO-D2LR
  Log(τ/KA) pERK1/2: 8.44 ± 0.05
[2]; 5 minute timepoint, dopamine as reference agonist
  ΔLog(τ/KA) pERK1/2: -0.12 ± 0.07
[2]; time 5 mins
  alpahscreen assay to detect pERK1/2, counts: 22.2889 counts and 25.6765 counts and 28.0112 counts
[2]; time 7.5 mins
  alpahscreen assay to detect pERK1/2, counts: 28.0112 counts and 22.6774 counts and 25.7734 counts
[2]; time 10 mins
  alpahscreen assay to detect pERK1/2, counts: 21.5421 counts and 16.2572 counts and 11.748 counts and 11.8417 counts
[2]; time 20 mins
  alpahscreen assay to detect pERK1/2, counts: 4.739 counts and 4.229 counts and 3.491 counts and 4.291 counts
[2]; time 30 mins
  alpahscreen assay to detect pERK1/2, counts: 2.723 counts and 2.242 counts and 2.289 counts and 2.713 counts
[3]
  Log(τ/KA) β-arrestin2: 6.48 ± 0.15
  ΔLog(τ/KA) β-arrestin2: 0.14 ± 0.20
[4]
  Log(τ/KA) GαoB activation: 7.08 ± 0.08
  pEC50 Gao: 7.33
  ΔLog(τ/KA) GαoB activation: -0.16 ± 0.11
[4]; 2 min
  EC50: 107 nM
  Emax: 100%
[4]; 5 min
  EC50: 95.5 nM
  Emax: 100%
[4]; 10 min
  EC50: 67.6 nM
  Emax: 100%
[4]; 15 min
  Emax: 100%
[4]; 30 min
  EC50: 30.9 nM
  Emax: 100%
[4]; 45 min
  EC50: 41.7 nM
  Emax: 100%
[4]; 60 min
  EC50: 51.3 nM
  Emax: 100%
[4]; 75 min
  EC50: 39.8 nM
  Emax: 100%
[4]; 90 min
  EC50: 43.7 nM
  Emax: 100%
[4]; time points from 2 to 90 min
  change in potency over time in the GαoB activation assay: no change in potency
[5]
  Log(τ/KA) Cellular impedance: 8.32 ± 0.05
  ΔLog(τ/KA) Cellular impedance: -0.23 ± 0.06
[5]; 2 min
  EC50: 4.68 nM
  Emax: 100%
[5]; 5 min
  EC50: 5.13 nM
  Emax: 100%
[5]; 10 min
  EC50: 7.94 nM
  Emax: 100%
[5]; 15 min
  EC50: 10.7 nM
  Emax: 100%
[5]; 30 min
  EC50: 17 nM
  Emax: 100%
[5]; 45 min
  EC50: 19.5 nM
  Emax: 100%
[5]; 60 min
  EC50: 24 nM
  Emax: 100%
[5]; 75 min
  EC50: 28.2 nM
  Emax: 100%
[5]; 90 min
  EC50: 34.7 nM
  Emax: 100%
[6]
  Log(τ/KA) cAMP: 7.67 ± 0.04
  ΔLog(τ/KA) cAMP: -0.39 ± 0.06
[6]; 2 min
  EC50: 9.55 nM
[6]; 5 min
  EC50: 22.4 nM
[6]; 10 min
  EC50: 41.7 nM
[6]; 15 min
  EC50: 42.7 nM
[6]; 30 min
  EC50: 34.7 nM
[6]; 45 min
  EC50: 97.7 nM
[6]; 60 min
  EC50: 186 nM
[6]; 75 min
  EC50: 107 nM
[6]; 90 min
  EC50: 174 nM
[6]; read-out: Emax cAMP, 2 min
  Emax: 100%
[6]; read-out: Emax cAMP, 5 min
  Emax: 100%
[6]; read-out: Emax cAMP, 10 min
  Emax: 100%
[6]; read-out: Emax cAMP, 15 min
  Emax: 100%
[6]; read-out: Emax cAMP, 30 min
  Emax: 100%
[6]; read-out: Emax cAMP, 45 min
  Emax: 100%
[6]; read-out: Emax cAMP, 60 min
  Emax: 100%
[6]; read-out: Emax cAMP, 75 min
  Emax: 100%
[6]; read-out: Emax cAMP, 90 min
  Emax: 100%
[6]; time 2.21667 mins
  Inhibition of cAMP production measured using a CAMYEL BRET biosensor, Net BRET: 0.139 and 0.1472 and 0.1432
[6]; time 2.58333 mins
  Inhibition of cAMP production measured using a CAMYEL BRET biosensor, Net BRET: 0.1633 and 0.1578 and 0.1547
[6]; time 2.95 mins
  Inhibition of cAMP production measured using a CAMYEL BRET biosensor, Net BRET: 0.1708 and 0.1681 and 0.157
[6]; time 3.31667 mins
  Inhibition of cAMP production measured using a CAMYEL BRET biosensor, Net BRET: 0.1659 and 0.1812 and 0.1714
[6]; time 3.68333 mins
  Inhibition of cAMP production measured using a CAMYEL BRET biosensor, Net BRET: 0.1811 and 0.1789 and 0.1805
[6]; time 4.05 mins
  Inhibition of cAMP production measured using a CAMYEL BRET biosensor, Net BRET: 0.191 and 0.1937 and 0.1853
[6]; time 4.41667 mins
  Inhibition of cAMP production measured using a CAMYEL BRET biosensor, Net BRET: 0.1979 and 0.1996 and 0.185
[6]; time 4.78333 mins
  Inhibition of cAMP production measured using a CAMYEL BRET biosensor, Net BRET: 0.2031 and 0.2011 and 0.1899
[6]; time 5.15 mins
  Inhibition of cAMP production measured using a CAMYEL BRET biosensor, Net BRET: 0.2133 and 0.1934 and 0.1923
[6]; time 5.51667 mins
  Inhibition of cAMP production measured using a CAMYEL BRET biosensor, Net BRET: 0.202 and 0.1988 and 0.1873
[6]; time 5.88333 mins
  Inhibition of cAMP production measured using a CAMYEL BRET biosensor, Net BRET: 0.214 and 0.1997 and 0.2002
[6]; time 6.25 mins
  Inhibition of cAMP production measured using a CAMYEL BRET biosensor, Net BRET: 0.2138 and 0.204 and 0.1926
[6]; time 6.61667 mins
  Inhibition of cAMP production measured using a CAMYEL BRET biosensor, Net BRET: 0.2113 and 0.1972 and 0.1923
[6]; time 6.98333 mins
  Inhibition of cAMP production measured using a CAMYEL BRET biosensor, Net BRET: 0.2032 and 0.2012 and 0.1937
[6]; time 7.35 mins
  Inhibition of cAMP production measured using a CAMYEL BRET biosensor, Net BRET: 0.2141 and 0.1963 and 0.1945
[6]; time 7.71667 mins
  Inhibition of cAMP production measured using a CAMYEL BRET biosensor, Net BRET: 0.2104 and 0.2011 and 0.1956
[6]; time 8.08333 mins
  Inhibition of cAMP production measured using a CAMYEL BRET biosensor, Net BRET: 0.2099 and 0.2149 and 0.1931
[6]; time 8.45 mins
  Inhibition of cAMP production measured using a CAMYEL BRET biosensor, Net BRET: 0.2126 and 0.2072 and 0.1885
[6]; time 8.81667 mins
  Inhibition of cAMP production measured using a CAMYEL BRET biosensor, Net BRET: 0.2189 and 0.2083 and 0.199
[6]; time 9.18333 mins
  Inhibition of cAMP production measured using a CAMYEL BRET biosensor, Net BRET: 0.2207 and 0.2105 and 0.1943
[6]; time 9.55 mins
  Inhibition of cAMP production measured using a CAMYEL BRET biosensor, Net BRET: 0.212 and 0.2054 and 0.2079
[6]; time 9.91667 mins
  Inhibition of cAMP production measured using a CAMYEL BRET biosensor, Net BRET: 0.2149 and 0.2049 and 0.2075
[6]; time 10.2833 mins
  Inhibition of cAMP production measured using a CAMYEL BRET biosensor, Net BRET: 0.2152 and 0.2111 and 0.2029
[6]; time 10.65 mins
  Inhibition of cAMP production measured using a CAMYEL BRET biosensor, Net BRET: 0.2279 and 0.2163 and 0.2038
[6]; time 11.0167 mins
  Inhibition of cAMP production measured using a CAMYEL BRET biosensor, Net BRET: 0.2157 and 0.2032 and 0.2052
[6]; time 11.3833 mins
  Inhibition of cAMP production measured using a CAMYEL BRET biosensor, Net BRET: 0.2205 and 0.2041 and 0.2034
[6]; time 11.75 mins
  Inhibition of cAMP production measured using a CAMYEL BRET biosensor, Net BRET: 0.2254 and 0.2085 and 0.1983
[6]; time 12.1167 mins
  Inhibition of cAMP production measured using a CAMYEL BRET biosensor, Net BRET: 0.2217 and 0.2066 and 0.2006
[6]; time 12.4833 mins
  Inhibition of cAMP production measured using a CAMYEL BRET biosensor, Net BRET: 0.2324 and 0.2048 and 0.2074
[6]; time 12.85 mins
  Inhibition of cAMP production measured using a CAMYEL BRET biosensor, Net BRET: 0.2281 and 0.2112 and 0.2008
[6]; time 13.2167 mins
  Inhibition of cAMP production measured using a CAMYEL BRET biosensor, Net BRET: 0.2271 and 0.2125 and 0.2083
[6]; time 13.5833 mins
  Inhibition of cAMP production measured using a CAMYEL BRET biosensor, Net BRET: 0.2211 and 0.208 and 0.2059
[6]; time 13.95 mins
  Inhibition of cAMP production measured using a CAMYEL BRET biosensor, Net BRET: 0.2209 and 0.2042 and 0.208
[6]; time 14.3167 mins
  Inhibition of cAMP production measured using a CAMYEL BRET biosensor, Net BRET: 0.2319
